Measurements reported in patent US20030194409A1, “Conjugate heat shock protein-binding peptides” (priority 2002, published 2003).
Read-outs that look alike come from different tables or passages of the source. Where a SMILES comes first, the peptide text is derived from it.

How the values were obtained:
[1] = 17- versus 19-allylamino derivative of herbimycin A; cited from earlier work
[2] = target: T1, gp96 in the presence of herbimycin A (Mus musculus, UniProt P08113); conditions: expected frequency for comparison with % actual, cited from earlier work
T1 construct: The mouse cDNA encoding mature gp96 (i.e., wherein the endoplasmic reticulum signal peptide has been removed) was incorporated into the pET 11 a expression vector; made in house; host or cells: Escherichia coli BL21 (pET11gp96)
T1 sequence (P08113 22-802): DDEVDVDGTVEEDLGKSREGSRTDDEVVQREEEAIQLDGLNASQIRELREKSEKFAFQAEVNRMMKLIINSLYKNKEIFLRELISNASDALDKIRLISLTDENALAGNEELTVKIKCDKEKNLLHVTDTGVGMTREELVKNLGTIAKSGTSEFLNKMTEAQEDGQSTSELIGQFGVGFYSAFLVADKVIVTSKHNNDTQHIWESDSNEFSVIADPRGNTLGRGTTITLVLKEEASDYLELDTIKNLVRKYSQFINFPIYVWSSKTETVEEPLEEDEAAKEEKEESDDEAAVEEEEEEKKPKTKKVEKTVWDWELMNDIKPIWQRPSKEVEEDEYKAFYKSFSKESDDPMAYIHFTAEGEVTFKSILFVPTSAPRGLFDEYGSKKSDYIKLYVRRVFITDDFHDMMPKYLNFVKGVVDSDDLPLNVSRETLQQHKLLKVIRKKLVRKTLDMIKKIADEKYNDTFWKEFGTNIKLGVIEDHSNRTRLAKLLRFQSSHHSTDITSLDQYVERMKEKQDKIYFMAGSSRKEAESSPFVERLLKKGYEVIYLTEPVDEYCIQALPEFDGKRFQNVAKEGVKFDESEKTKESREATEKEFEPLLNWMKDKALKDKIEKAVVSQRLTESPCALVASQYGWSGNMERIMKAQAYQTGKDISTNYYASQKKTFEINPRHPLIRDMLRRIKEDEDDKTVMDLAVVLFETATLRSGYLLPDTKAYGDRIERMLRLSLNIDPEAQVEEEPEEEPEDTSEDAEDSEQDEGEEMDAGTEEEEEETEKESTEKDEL

[3] = target: T1, gp96 in the presence of herbimycin A; test: Affinity panning of phage display heptapeptide library on gp96 in the presence of herbimycin A; type: binding; conditions: TWEEN 20
Protocol: Preparation of a gp96 expression vector. The mouse cDNA encoding mature gp96 (i.e., wherein the endoplasmic reticulum signal peptide has been removed) was incorporated into the pET 11 a expression vector (Novagen) as follows. Gp96 cDNA insert was prepared by polymerase chain reaction (PCR) of a pRc/CMV clone containing the cDNA using the following oligonucleotide primers: […]
Expression of gp96. pET11gp96 was transformed into BL21 Escherichia coli cells, and plated on LB plates containing ampicillin (50 μg/ml). One of the resulting colonies was used to inoculate a 20 ml overnight culture of 2×TY medium containing ampicillin (150 μg/ml). The following day, the resulting culture was spun down and the harvested bacteria were resuspended in 1 ml of fresh medium. Two one liter cultures were then each inoculated with 0.5 ml of the harvested cells and allowed to grow at 37° C. until the optical density, measured at 600 nm, was 0.5. Then, IPTG was added to a concentration of 1 mM and the cells were cultured for another 3 hours before being harvested by centrifugation. The resulting cell pellet was resuspended in 20 ml of 50 mM HEPES pH 7.5, 50 mM KCl, 5 mM MgAcetate, 20% sucrose and 1 mM PMSF. Cell extracts were prepared by pressure shearing in a French Press. The lysates were then spun at 100,000×g for 1.5 hours and the supernatant, which constituted crude gp96 extract, was collected.
Purification of gp96. The following steps were all performed at 4° C. A 12.5 cm×3.2 cm column of DE52 resin (Whatman) was equilibrated in a solution of 50 mM MOPS pH 7.4, 10 mM NaCl, 5 mM MgAcetate (hereafter, “Buffer A”). The crude gp96 extract was diluted 2-fold and immediately loaded onto the column at a flow rate of 2 ml/min. Elution from the column was achieved using a gradient of a solution of 50 mM MOPS pH 7.4, 1M NaCl, 5 mM MgAcetate (hereafter, “Buffer B”) from 0% to 100% Buffer B over 1000 ml. The elution profile was examined by subjecting fractions collected from the column to SDS-PAGE analysis. Fractions containing gp96 were pooled and diluted 2-fold with cold water, and were immediately run onto the next column (see below).
A 10 cm×1 cm column of hydroxyapatite (BioRad) was washed with 100 ml 0.5 M K2HPO4, 50 mM KCl pH 7.4 and then equilibrated with 10 mM K2HPO4, 50 mM KCl pH 7.4. The pooled diluted fractions from the DE52 column were loaded onto this column at a flow rate of 1 ml/min. The gp96 protein was eluted in a gradient of 10-500 mM K2HPO4 over 800 ml. Fractions containing gp96 were pooled and loaded onto the phenylsepharose column described below.
A 9 cm×3 cm column of phenylsepharose (Pharmacia) was equilibrated with 500 mM NaCl, 50 mM MOPS pH 7.4. The pooled fractions containing gp96 from the hydroxyapatite were loaded onto this column at 1 ml/min and the gp96 was eluted in a gradient of 500-0 mM NaCl over 800 ml. The gp96 containing fractions collected from the column were identified by SDS-PAGE, pooled, and concentrated.
The gp96 was then loaded onto a Hi Load 26/60 Superdex-200 column (Pharmacia) equilibrated with 100 mM NaCl, 5 mM MgAcetate, 50 mM MOPS pH 7.5, 3 ml fractions were collected, and the fractions containing the most pure gp96 (as identified by SDS PAGE using a 12 percent reducing gel) and pooled. To the pooled fractions, glycerol was added to 10% (v/v), and then the fractions were concentrated to 21 mg/ml on a Centricon-50 concentrator (Amicon), frozen using liquid nitrogen, and stored at −80° C.
Affinity panning. The Ph.D. Phage Display Library Kit (New England BioLabs, Beverly, Mass.), was used for affinity panning. For each panning experiment, a well of a 96-well polystyrene microtiter plate (each well having a 6 mm diameter) was filled with 150 μl of a solution of 200 μg/ml of gp96 in 0.1 M NaHCO3 pH 8.3. If herbimycin A was to be included in the experiment, 1 μl of 10 mg/ml herbimycin A (GIBCO) in DMSO was added to each well, corresponding to a 50-fold molar excess relative to gp96. […]

EG7 cells = test: EG7 tumor cell challenge after immunization; type: in vivo, C57BL/6 mice; conditions: peptide alone, without TiterMax or hsp70, eight mice per group
Protocol: C57BL/6 mice, 8-10 weeks old, were immunized intradermally with one of the following (eight mice in each group): (a)5 μl TiterMax and 5 μg OVA peptide; (b) 15 μg hsp70 and 5 μg OVA peptide; (c) 5 μl TiterMax and […] (OVA-BiP); (d) 15 μg hsp70 and 12 μg OVA-BiP; (e) control (four animals only in this group); (f) 5 μg OVA peptide; or (g) 12 μg OVA-BiP. The mice then were injected with 4×10^6 EG7 cells. Tumor size was evaluated over time by measuring two diameters, the greatest diameter and the diameter perpendicular to the greatest diameter, and then calculating the average diameter. The results are shown in FIGS. 8A-G (corresponding to groups a-g, as set forth above).

[4] = tested on: OVA-peptide pulsed EL4 cells; test: 51Cr release assay with effector cells from immunized mice; type: cell-based, C57BL/6 mice; conditions: mice immunized once or twice; OVA-primed EL-4 target cells
Protocol: Preparation of hsp70 and/or peptide for use in immunization. Approximately 15 μg hsp70 and 12 μg OVA-BiP were mixed, on ice, to a final volume of 10 μL in Buffer Y (to produce a final concentration of 21.5 μM hsp70, 0.5 mM OVA-BiP, 20 mM HEPES pH 7.0, 150 mM KCl, 10 MM (NH4)2SO4, 2 mM MgCl2 and 2 mM MgADP, pH 7.0). The mixture was incubated for 30 minutes at 37° C. and was used for in vivo immunizations. Similar incubations were carried out with (i) 5 μl TiterMax adjuvant (Vaxcell, Norcross, Ga.) and 12 μg OVA-BiP (ii) 5 μl TiterMax and 5 μg OVA peptide or (iii) 12 μg OVA-BiP alone.
Preparation of cells for chromium release assay. […]
Chromium release assay. […] Supernatants were harvested and radioactivitiy released by cytotoxic activity was measured in a gamma counter. The percent specific lysis was calculated as 100×[(cpm release by CTL−cpm spontaneously released)/(cpm maximal release−cpm spontaneously released)]. Maximal release was determined by adding 1% NP-40 to lyse all cells. Spontaneous release of all target in the absence of effector cells (measured in a culture of target cells (in the absence of effector cells) maintained in parallel for the duration of the assay) was less than 20% of the maximal release.

[5] = Table XII, gp96 and herbimycin A, binding buffer without calcium: 20 mM HEPES pH 7.5, 100 mM KCl, 1 mM DTT, 1 mM MgAcetate, 42 phage-expressed peptides sequenced
[6] = Table XIV, gp96 in the presence of herbimycin A, binding buffer with ATP: 20 mM HEPES pH 7.5, 100 mM KCl, 1 mM CaCl2, 1 mM MgAcetate, 1 mM ATP
[7] = Table XVI, binding buffer with AMP-PNP instead of ATP: 20 mM HEPES pH 7.5, 100 mM KCl, 1 mM CaCl2, 1 mM MgAcetate, 1 mM AMP-PNP

Row | % actual (amino acid frequency in sequenced gp96-binding phage-expressed heptapeptides) [3, 5] [%] | % actual (amino acid frequency in sequenced gp96-binding phage-expressed heptapeptides) [3, 6] [%] | % actual (amino acid frequency in sequenced gp96-binding phage-expressed heptapeptides) [3, 7] [%] | Molecule | activity [1] | % expected (amino acid frequency) ([2]; Table XII) [%] | % expected (amino acid frequency) ([2]; Table XIV) [%] | % expected (amino acid frequency) ([2]; Table XVI) [%] | tumor-free animals (EG7 cells) | OVA-specific cytotoxic immune response [4]
1 | 3.74 | 1.78 | 1.4 | NCC(=O)O [Gly] | – | 3.7 | 3.7 | 3.7 | – | –
2 | 13.95 | 8.9 | 10 | C[C@@H](O)[C@H](N)C(=O)O [Thr] | – | 9.3 | 9.3 | 9.3 | – | –
3 | 2.04 | 0 | 1.4 | N[C@@H](CC(=O)O)C(=O)O [Asp] | – | 2.1 | 2.1 | 2.1 | – | –
4 | 2.0 | 0 | 0 | N[C@@H](CCC(=O)O)C(=O)O [Glu] | – | 1.2 | 1.2 | 1.2 | – | –

Continued, molecule first:

Row | Molecule | % actual (amino acid frequency in sequenced gp96-binding phage-expressed heptapeptides) [3, 5] [%] | % actual (amino acid frequency in sequenced gp96-binding phage-expressed heptapeptides) [3, 6] [%] | % actual (amino acid frequency in sequenced gp96-binding phage-expressed heptapeptides) [3, 7] [%] | activity [1] | % expected (amino acid frequency) ([2]; Table XII) [%] | % expected (amino acid frequency) ([2]; Table XIV) [%] | % expected (amino acid frequency) ([2]; Table XVI) [%] | tumor-free animals (EG7 cells) | OVA-specific cytotoxic immune response [4]
5 | 17-allylamino herbimycin | – | – | – | more active than 19-allylamino herbimycin | – | – | – | – | –
6 | Ser Ile Ile Asn Phe Glu Lys Leu (SIINFEKL; printed: Ser Ile Ile Asn Phe Glu Lys Leu) [OVA peptide] | – | – | – | – | – | – | – | no animals were tumor-free | –
7 | N=C(N)NCCC[C@H](N)C(=O)O [Arg] | 2.72 | 5.35 | 5.7 | – | 3.9 | 3.9 | 3.9 | – | –
8 | CC[C@H](C)[C@H](NC(=O)[C@@H](NC(=O)[C@@H](N)CO)[C@@H](C)CC)C(=O)N[C@@H](CC(N)=O)C(=O)N[C@@H](Cc1ccccc1)C(=O)N[C@@H](CCC(=O)O)C(=O)N[C@@H](CCCCN)C(=O)N[C@@H](CC(C)C)C(=O)NCC(=O)N[C@@H](CO)C(=O)NCC(=O)N[C@@H](Cc1c[nH]cn1)C(=O)N[C@@H](Cc1c[nH]c2ccccc12)C(=O)N[C@@H](CC(=O)O)C(=O)N[C@@H](Cc1ccccc1)C(=O)N[C@@H](C)C(=O)N[C@@H](Cc1c[nH]c2ccccc12)C(=O)N1CCC[C@H]1C(=O)N[C@@H](Cc1c[nH]c2ccccc12)C(=O)O [OVA-BiP] (H-SIINFEKLGSGHWDFAWPW-OH) | – | – | – | – | – | – | – | – | significant anti-OVA immune response
